# Reference: ChEMBL document CHEMBL4507269, “Data for DCP probe BAY-386” (2021)
# Tests used:
# [1] = target: T1, Muscarinic acetylcholine receptor M2 (Homo sapiens) (UniProt P08172); conditions: Compound concentration 10.0 uM
# T1 sequence (whole entry): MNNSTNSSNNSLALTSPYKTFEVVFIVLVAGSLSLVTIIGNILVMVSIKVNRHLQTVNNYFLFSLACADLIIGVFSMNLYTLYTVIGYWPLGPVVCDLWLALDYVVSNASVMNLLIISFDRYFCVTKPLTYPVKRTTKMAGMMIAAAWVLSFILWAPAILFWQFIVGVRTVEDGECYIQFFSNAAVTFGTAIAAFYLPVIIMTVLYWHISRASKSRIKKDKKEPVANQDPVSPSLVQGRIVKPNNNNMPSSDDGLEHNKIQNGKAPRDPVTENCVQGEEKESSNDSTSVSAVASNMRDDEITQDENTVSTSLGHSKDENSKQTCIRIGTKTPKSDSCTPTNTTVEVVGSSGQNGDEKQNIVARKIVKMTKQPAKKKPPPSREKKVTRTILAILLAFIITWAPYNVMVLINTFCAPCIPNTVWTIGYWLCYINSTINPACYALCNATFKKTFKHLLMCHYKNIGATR
# [2] = target: Fibroblast growth factor receptor 3 (Homo sapiens) (UniProt P22607); conditions: Compound concentration 1000.0 nM
# Fibroblast growth factor receptor 3 (Homo sapiens), sequence (P22607 23-806 limits assumed): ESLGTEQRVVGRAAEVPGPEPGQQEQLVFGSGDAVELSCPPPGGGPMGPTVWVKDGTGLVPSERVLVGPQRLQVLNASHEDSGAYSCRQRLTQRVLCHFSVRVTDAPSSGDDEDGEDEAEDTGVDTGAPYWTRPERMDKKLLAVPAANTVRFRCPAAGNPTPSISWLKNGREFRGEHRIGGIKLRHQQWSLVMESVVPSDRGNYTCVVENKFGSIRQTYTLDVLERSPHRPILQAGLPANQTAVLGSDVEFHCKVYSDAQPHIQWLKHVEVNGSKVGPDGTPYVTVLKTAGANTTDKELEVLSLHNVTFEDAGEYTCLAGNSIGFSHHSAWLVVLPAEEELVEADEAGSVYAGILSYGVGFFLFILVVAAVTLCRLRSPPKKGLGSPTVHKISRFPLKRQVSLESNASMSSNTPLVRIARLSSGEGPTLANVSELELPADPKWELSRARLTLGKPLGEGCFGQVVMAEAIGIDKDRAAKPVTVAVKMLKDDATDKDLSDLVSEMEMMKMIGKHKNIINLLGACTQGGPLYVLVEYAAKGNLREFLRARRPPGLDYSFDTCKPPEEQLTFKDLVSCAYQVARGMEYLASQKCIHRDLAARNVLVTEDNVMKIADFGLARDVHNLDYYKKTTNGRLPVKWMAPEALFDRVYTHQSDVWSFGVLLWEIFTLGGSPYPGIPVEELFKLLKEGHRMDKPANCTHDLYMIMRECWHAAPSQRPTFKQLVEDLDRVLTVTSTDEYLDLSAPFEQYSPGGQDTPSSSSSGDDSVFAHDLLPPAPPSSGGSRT
# [3] = target: Casein kinase I isoform gamma-3 (Homo sapiens) (UniProt Q9Y6M4); conditions: Compound concentration 1000.0 nM
# Casein kinase I isoform gamma-3 (Homo sapiens), sequence (Q9Y6M4 whole entry, looked up, canonical isoform): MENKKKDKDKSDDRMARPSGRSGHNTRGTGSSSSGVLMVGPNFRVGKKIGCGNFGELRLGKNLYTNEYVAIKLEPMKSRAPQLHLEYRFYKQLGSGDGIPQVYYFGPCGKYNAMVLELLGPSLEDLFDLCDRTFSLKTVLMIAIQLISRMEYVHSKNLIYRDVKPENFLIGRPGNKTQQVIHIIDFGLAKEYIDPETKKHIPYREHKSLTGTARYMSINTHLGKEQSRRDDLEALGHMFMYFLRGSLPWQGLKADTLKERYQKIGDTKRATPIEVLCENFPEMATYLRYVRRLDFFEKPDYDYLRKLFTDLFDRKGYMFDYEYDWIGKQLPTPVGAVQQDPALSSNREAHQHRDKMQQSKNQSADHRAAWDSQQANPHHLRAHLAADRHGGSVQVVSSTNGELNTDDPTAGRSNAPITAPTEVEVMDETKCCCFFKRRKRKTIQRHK
# [4] = target: Kappa-type opioid receptor (Homo sapiens) (UniProt P41145); assay: kappa (KOP) (h) Eurofins-Cerep Cellular and Nuclear Receptor Functional Assays; conditions: Compound concentration 10.0 uM
# Kappa-type opioid receptor (Homo sapiens), sequence (P41145 whole entry): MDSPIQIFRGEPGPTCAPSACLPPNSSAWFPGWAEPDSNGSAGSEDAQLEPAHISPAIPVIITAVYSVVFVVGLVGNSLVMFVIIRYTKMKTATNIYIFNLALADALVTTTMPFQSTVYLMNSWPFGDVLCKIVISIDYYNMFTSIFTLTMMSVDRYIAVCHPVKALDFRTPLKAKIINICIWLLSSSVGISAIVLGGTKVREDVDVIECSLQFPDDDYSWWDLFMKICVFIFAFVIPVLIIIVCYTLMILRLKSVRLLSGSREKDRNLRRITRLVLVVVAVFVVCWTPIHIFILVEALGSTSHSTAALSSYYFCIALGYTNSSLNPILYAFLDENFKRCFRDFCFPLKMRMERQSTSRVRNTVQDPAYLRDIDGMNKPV
# [5] = target: Cyclin-dependent kinase-like 3 (Homo sapiens) (UniProt Q8IVW4); conditions: Compound concentration 1000.0 nM
# Cyclin-dependent kinase-like 3 (Homo sapiens), sequence (Q8IVW4 whole entry, looked up): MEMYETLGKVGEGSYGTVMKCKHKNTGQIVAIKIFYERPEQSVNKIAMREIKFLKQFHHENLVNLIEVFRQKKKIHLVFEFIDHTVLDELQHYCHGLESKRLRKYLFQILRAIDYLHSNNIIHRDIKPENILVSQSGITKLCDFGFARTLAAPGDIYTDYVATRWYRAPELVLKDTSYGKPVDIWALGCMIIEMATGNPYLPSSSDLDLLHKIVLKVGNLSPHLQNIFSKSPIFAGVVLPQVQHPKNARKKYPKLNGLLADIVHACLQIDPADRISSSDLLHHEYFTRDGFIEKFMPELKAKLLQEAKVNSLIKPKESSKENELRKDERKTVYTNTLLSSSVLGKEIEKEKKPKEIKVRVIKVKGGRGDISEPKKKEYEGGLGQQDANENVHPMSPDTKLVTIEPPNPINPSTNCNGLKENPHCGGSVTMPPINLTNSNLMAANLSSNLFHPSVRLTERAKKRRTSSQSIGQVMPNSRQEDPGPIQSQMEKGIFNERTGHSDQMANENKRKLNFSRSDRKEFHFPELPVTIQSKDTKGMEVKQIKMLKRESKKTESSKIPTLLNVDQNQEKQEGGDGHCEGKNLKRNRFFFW
# [6] = target: Beta-1 adrenergic receptor (Homo sapiens) (UniProt P08588); conditions: Compound concentration 10.0 uM
# Beta-1 adrenergic receptor (Homo sapiens), sequence (P08588 whole entry, looked up): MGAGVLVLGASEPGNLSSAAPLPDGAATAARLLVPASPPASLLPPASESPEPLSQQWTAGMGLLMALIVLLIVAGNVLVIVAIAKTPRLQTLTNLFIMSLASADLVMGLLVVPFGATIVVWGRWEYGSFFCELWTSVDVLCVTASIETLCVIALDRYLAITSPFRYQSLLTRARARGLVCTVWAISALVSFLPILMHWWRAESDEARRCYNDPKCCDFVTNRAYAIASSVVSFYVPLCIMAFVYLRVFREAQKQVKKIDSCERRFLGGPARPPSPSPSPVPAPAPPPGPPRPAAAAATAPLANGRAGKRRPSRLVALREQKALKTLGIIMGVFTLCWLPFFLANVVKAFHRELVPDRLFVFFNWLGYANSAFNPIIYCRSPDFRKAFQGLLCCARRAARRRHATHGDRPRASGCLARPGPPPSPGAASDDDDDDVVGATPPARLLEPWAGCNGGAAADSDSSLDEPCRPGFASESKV
# [7] = target: Histamine H2 receptor (Homo sapiens) (UniProt P25021); conditions: Compound concentration 10.0 uM
# Histamine H2 receptor (Homo sapiens), sequence (P25021 whole entry): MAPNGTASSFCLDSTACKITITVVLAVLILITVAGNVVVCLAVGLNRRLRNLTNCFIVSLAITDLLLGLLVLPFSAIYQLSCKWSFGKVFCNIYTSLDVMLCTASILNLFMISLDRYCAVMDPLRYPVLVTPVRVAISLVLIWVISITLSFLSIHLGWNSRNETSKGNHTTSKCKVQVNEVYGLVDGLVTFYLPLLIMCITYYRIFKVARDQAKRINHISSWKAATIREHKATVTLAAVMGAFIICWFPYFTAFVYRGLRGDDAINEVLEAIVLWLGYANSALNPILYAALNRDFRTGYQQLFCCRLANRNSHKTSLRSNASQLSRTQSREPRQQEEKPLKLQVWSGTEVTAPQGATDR
# [8] = target: T2, Alpha-1A adrenergic receptor (Homo sapiens) (UniProt P35348); conditions: Rattus norvegicus; Compound concentration 10.0 uM
# T2 sequence (whole entry): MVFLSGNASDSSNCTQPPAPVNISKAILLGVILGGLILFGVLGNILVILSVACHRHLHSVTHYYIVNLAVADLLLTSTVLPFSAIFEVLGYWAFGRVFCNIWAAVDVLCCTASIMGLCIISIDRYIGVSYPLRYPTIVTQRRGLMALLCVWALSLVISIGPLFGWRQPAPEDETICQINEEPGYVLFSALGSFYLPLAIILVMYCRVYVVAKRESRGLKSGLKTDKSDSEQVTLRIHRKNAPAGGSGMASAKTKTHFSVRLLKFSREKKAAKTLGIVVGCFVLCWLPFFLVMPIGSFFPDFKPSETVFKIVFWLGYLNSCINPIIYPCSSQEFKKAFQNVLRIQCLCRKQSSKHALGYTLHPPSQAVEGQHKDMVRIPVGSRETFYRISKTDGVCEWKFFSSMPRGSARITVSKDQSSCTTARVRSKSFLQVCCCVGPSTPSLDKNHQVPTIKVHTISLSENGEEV
# [9] = target: D(2) dopamine receptor (Homo sapiens) (UniProt P14416); conditions: Compound concentration 10.0 uM
# [10] = target: Histamine H3 receptor (Homo sapiens) (UniProt Q9Y5N1); assay: Histamine H3 Eurofins-Panlabs radioligand binding assay; conditions: Compound concentration 10.0 uM
# Histamine H3 receptor (Homo sapiens), sequence (Q9Y5N1 whole entry): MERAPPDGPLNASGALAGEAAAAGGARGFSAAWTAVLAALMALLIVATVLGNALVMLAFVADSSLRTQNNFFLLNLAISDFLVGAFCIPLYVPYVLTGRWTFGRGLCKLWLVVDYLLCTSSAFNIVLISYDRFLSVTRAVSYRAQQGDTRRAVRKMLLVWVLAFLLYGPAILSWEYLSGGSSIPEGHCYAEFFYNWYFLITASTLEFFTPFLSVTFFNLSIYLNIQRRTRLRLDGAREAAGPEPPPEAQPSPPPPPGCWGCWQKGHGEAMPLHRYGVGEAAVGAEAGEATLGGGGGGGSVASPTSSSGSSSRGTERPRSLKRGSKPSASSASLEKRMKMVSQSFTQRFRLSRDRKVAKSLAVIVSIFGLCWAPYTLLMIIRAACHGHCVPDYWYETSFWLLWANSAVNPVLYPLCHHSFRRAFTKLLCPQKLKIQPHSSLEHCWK
# [11] = target: Sigma non-opioid intracellular receptor 1 (Homo sapiens) (UniProt Q99720); assay: Inhibition of Sigma 1 at 10 µM in the Eurofins-Panlabs radioligand binding assay (Eurofins_assay_278110); design: ligand concentration 8 nM; conditions: Compound concentration 10.0 uM
# [12] = target: T3, Alpha-2A adrenergic receptor (Homo sapiens) (UniProt P08913); assay: Adrenergic alpha2A Eurofins-Panlabs radioligand binding assay; design: ligand concentration 1 nM, non-specific ligand with concentration 10 µM WB-4101, incubation time 60 min, incubation temperature 25 °C; conditions: Compound concentration 10.0 uM
# T3 sequence (whole entry): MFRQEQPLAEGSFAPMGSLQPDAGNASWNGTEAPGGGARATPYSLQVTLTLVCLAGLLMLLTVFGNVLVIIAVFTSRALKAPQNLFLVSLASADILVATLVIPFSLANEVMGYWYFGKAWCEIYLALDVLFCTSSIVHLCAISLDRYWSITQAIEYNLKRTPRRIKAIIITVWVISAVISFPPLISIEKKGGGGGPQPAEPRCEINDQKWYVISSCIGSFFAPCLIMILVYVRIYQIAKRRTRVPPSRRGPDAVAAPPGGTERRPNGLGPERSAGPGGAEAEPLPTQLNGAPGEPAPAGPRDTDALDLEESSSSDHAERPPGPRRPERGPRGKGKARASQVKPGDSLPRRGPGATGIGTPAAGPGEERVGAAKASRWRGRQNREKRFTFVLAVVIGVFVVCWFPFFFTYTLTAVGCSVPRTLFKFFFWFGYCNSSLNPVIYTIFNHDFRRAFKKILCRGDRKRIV
# [13] = target: Purinergic P2Y (Rattus norvegicus) (UniProt O35811+Q9EPX4+P49651+Q63371+P41232+O35881+Q6GUG4); conditions: Compound concentration 10.0 uM
# [14] = target: Mu-type opioid receptor (Homo sapiens) (UniProt P35372); conditions: Compound concentration 10.0 uM
# [15] = target: Endothelin receptor type B (Homo sapiens) (UniProt P24530); conditions: Compound concentration 10.0 uM
# Endothelin receptor type B (Homo sapiens), sequence (P24530 whole entry): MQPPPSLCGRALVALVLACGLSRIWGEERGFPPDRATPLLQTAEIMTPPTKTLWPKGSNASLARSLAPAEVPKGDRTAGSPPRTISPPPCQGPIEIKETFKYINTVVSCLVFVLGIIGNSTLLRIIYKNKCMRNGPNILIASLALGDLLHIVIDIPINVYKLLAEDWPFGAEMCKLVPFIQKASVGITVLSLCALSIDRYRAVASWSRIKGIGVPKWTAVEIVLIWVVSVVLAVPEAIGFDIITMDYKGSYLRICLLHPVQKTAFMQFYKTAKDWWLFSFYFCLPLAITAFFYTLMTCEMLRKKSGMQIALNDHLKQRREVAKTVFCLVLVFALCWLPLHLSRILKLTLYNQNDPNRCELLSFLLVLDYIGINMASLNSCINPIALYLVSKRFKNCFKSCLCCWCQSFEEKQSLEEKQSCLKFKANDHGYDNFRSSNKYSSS
# [16] = organism: Rattus norvegicus; assay: Inhibition of Imidazoline I2, Central at 10 µM in the Eurofins-Panlabs radioligand binding assay (Eurofins_assay_241000); design: ligand concentration 2 nM; conditions: Compound concentration 10.0 uM
# [17] = target: Cysteinyl leukotriene receptor 1 (Homo sapiens) (UniProt Q9Y271); assay: Inhibition of Leukotriene, Cysteinyl CysLT1 at 10 µM in the Eurofins-Panlabs radioligand binding assay (Eurofins_assay_250460); design: ligand concentration 0.3 nM, non-specific ligand with concentration 0.3 µM Leukotriene D4, incubation time 30 min, incubation temperature 25 °C; conditions: Compound concentration 10.0 uM
# [18] = target: Sodium-dependent serotonin transporter (Homo sapiens) (UniProt P31645); conditions: Compound concentration 10.0 uM
# Sodium-dependent serotonin transporter (Homo sapiens), sequence (P31645 whole entry, looked up): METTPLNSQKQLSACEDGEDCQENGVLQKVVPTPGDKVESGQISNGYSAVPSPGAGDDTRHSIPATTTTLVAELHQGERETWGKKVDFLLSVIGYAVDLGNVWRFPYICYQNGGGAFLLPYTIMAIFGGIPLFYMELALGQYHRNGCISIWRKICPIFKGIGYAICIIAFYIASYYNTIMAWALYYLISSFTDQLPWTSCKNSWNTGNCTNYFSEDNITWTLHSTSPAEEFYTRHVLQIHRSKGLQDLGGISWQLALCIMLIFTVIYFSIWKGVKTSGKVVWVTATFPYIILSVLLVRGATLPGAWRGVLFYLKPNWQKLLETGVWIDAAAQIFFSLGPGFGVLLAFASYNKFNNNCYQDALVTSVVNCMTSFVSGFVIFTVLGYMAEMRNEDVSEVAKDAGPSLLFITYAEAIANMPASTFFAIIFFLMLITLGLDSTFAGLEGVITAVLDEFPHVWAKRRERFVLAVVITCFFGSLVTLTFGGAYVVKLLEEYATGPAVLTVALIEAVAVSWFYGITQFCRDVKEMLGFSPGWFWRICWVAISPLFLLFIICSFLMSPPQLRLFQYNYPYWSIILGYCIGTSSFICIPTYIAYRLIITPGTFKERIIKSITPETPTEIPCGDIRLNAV
# [19] = target: Melatonin receptor type 1A (Homo sapiens) (UniProt P48039); assay: Inhibition of Melatonin MT1 at 10 µM in the Eurofins-Panlabs radioligand binding assay (Eurofins_assay_251600); design: ligand concentration 0.05 nM; conditions: Compound concentration 10.0 uM
# Melatonin receptor type 1A (Homo sapiens), sequence (P48039 whole entry): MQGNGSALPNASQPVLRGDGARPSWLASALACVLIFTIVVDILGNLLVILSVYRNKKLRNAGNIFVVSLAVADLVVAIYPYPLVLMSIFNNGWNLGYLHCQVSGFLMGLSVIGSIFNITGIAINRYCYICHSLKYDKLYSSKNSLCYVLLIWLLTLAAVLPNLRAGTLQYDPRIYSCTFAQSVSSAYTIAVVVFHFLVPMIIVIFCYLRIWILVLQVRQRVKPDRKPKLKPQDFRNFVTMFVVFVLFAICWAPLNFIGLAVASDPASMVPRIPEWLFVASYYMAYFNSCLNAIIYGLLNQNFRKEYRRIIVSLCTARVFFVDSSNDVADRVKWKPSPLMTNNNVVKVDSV
# [20] = target: T4, Adenosine receptor A3 (Homo sapiens) (UniProt P0DMS8); conditions: Compound concentration 10.0 uM
# T4 sequence (whole entry): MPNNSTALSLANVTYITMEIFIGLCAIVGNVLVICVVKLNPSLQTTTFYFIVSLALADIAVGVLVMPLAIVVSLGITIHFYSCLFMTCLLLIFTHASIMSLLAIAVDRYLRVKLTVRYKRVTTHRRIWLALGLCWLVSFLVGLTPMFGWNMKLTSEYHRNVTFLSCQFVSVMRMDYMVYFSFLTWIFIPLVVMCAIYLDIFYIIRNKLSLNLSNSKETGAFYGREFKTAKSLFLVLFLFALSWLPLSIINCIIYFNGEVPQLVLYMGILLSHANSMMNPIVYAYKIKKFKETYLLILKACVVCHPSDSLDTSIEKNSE
smiles,measurement,setting,value
Cc1noc([C@H]2C[C@@H](c3ccc(C(F)(F)F)cc3)CN(C(=O)N3CCS(=O)(=O)C3)C2)n1 [BAY-448],inhibition,[1],39.5%
same,residual activity,[2],100%
same,residual activity,[3],100%
same,% Inhibition of Control Agonist Response (Mean n=2),[4],1.3%
same,% of Control Agonist Response (Mean n=2),[4],9%
same,residual activity,[5],81%
same,inhibition,[6],3.66%
O=C(N1CCS(=O)(=O)CC1)N1C[C@H](c2ccc(OC(F)(F)F)cc2)C[C@H](c2nc(C3CC3)no2)C1 [BAY-386],inhibition,[7],-3%
same,inhibition,[8],1%
same,inhibition,[9],1%
same,inhibition,[1],-9.14%
same,inhibition,[10],-3%
same,inhibition,[11],16%
same,inhibition,[12],8%
same,inhibition,[13],12%
same,inhibition,[14],6%
same,inhibition,[15],-4%
same,residual activity,[2],100%
same,inhibition,[16],0%
same,residual activity,[3],100%
same,inhibition,[17],1%
same,residual activity,[5],93%
same,inhibition,[18],3%
same,inhibition,[19],14%
same,inhibition,[20],12%
